{"source": "patent USRE48023E1", "about": "“Method for treating vascular-related disease” (EYEGENE INC., priority 2006, dated 2020)", "test_system": "mouse retinal angiogenesis", "assay": "Mouse model for inducing retinal angiogenesis using oxygen partial pressure, FITC-dextran observation", "type": "in vivo", "conditions": "for blood leakage (FITC-dextran) / normal angiogenesis (FITC-dextran): administered intraperitoneally after 75% oxygen treatment; for abnormal angiogenesis: treated daily with 1 μg/kg", "data": [{"substance": "SEQ ID NO: 2: peptide comprising a RGD sequence; sequence not printed in text (GFGRGDSPCA; Peptide Containing RGD Sequence)", "values": [{"measurement": "blood leakage (FITC-dextran)", "value": "blood leakage is reduced"}, {"measurement": "normal angiogenesis (FITC-dextran)", "value": "normal angiogenesis is induced"}, {"measurement": "abnormal angiogenesis", "value": "abnormal angiogenesis was not observed"}]}, {"substance": "SEQ ID NO: 3: polypeptide comprising a sequence RAD, used as the control (RADFV; Peptide Containing RAD Sequence) [reference compound]", "values": [{"measurement": "normal angiogenesis (FITC-dextran)", "value": "normal angiogenesis is not induced"}, {"measurement": "normal angiogenesis (FITC-dextran)", "setting": "listed as polypeptide comprising a RAD sequence", "value": "not also normally formed"}]}, {"substance": "echistatin (ECESGPCCRNCKFLKEGTICKRARGDDMDDYCNGLTCDCPRNPHKGPAT; Peptide containing RGD sequence)", "values": [{"measurement": "blood leakage (FITC-dextran)", "value": "blood leakage is reduced"}, {"measurement": "normal angiogenesis (FITC-dextran)", "value": "normal angiogenesis is induced"}, {"measurement": "abnormal angiogenesis", "value": "abnormal angiogenesis was not observed"}]}, {"substance": "SEQ ID NO: 1: peptide comprising a RGD sequence; sequence not printed in text (RGDFV; Peptide Containing RGD Sequence)", "values": [{"measurement": "blood leakage (FITC-dextran)", "value": "blood leakage is reduced"}, {"measurement": "normal angiogenesis (FITC-dextran)", "value": "normal angiogenesis is induced"}, {"measurement": "abnormal angiogenesis", "value": "abnormal angiogenesis was not observed"}]}, {"substance": "kistrin", "values": [{"measurement": "blood leakage (FITC-dextran)", "value": "blood leakage is reduced"}, {"measurement": "normal angiogenesis (FITC-dextran)", "value": "normal angiogenesis is induced"}, {"measurement": "abnormal angiogenesis", "value": "abnormal angiogenesis was not observed"}]}]}
